Test results: US7880007B2, “Bicyclic substituted phenyl piperidine modulators of muscarinic receptors” (Vertex Pharmaceuticals Incorporated, priority 2004, dated 2011)

Key:
Format in all cases: cell-based
M2 muscarinic receptor = target: T1, M2 muscarinic receptor (Homo sapiens, UniProt P08172); assay: Functional mobilization of intracellular calcium (FLIPR), M2-CHO cells; details: for M2 Activity: M2-CHO cells, calcium mobilization (FLIPR)
T1 construct: expressed in transfected cells; host or cells: CHO (M2-CHO)
T1 sequence (P08172 1-466): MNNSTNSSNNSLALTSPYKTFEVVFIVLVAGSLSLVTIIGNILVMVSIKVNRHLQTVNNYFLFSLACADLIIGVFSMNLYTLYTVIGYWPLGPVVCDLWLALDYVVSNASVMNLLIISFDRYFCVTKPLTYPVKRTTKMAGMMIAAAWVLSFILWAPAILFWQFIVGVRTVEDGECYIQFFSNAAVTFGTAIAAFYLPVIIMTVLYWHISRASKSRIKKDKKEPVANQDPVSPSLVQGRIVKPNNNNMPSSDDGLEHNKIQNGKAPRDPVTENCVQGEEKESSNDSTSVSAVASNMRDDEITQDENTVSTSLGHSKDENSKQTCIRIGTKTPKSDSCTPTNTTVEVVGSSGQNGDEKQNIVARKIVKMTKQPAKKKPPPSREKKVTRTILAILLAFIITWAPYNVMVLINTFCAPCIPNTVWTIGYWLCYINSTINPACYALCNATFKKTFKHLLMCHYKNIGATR
Method in brief: (§1)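 CHO cells expressing human M1–M4 receptors loaded with Fluo-3 AM or Calcium 3 dye (1 mM probenecid, pH 7.4); 0.5% DMSO final. Agonist mode: compound added directly; antagonist mode: 15 min pre-incubation or co-application, then carbachol at EC80. Fluorescence read 60 s on FLIPR; efficacy relative to carbachol maximum.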

M4 muscarinic receptor = target: T2, M4 muscarinic receptor (Homo sapiens, UniProt P08173); assay: Functional mobilization of intracellular calcium (FLIPR), M4-CHO cells; details: for M4 Activity: M4-CHO cells, calcium mobilization (FLIPR)
T2 construct: expressed in transfected cells; host or cells: CHO (M4-CHO)
T2 sequence (P08173 1-479): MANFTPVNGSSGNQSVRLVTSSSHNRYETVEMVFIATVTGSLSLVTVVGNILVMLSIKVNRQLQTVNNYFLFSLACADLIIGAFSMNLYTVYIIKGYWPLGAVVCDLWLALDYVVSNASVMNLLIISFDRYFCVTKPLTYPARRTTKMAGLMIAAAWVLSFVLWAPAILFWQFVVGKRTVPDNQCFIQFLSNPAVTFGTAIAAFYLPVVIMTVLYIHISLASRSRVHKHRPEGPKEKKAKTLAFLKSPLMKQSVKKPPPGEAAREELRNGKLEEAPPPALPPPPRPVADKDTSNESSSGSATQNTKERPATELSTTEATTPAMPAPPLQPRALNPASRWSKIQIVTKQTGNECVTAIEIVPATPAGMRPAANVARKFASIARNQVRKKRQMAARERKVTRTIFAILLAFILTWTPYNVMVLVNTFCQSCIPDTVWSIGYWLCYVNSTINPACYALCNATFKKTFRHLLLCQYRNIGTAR
Method in brief: as §1

M1 muscarinic receptor = target: T3, M1 muscarinic receptor (Homo sapiens, UniProt P11229); assay: Functional mobilization of intracellular calcium (FLIPR), M1-CHO cells; details: for M1 Activity: M1-CHO cells, calcium mobilization (FLIPR)
T3 construct: expressed in transfected cells; host or cells: CHO (M1-CHO)
T3 sequence (P11229 1-460): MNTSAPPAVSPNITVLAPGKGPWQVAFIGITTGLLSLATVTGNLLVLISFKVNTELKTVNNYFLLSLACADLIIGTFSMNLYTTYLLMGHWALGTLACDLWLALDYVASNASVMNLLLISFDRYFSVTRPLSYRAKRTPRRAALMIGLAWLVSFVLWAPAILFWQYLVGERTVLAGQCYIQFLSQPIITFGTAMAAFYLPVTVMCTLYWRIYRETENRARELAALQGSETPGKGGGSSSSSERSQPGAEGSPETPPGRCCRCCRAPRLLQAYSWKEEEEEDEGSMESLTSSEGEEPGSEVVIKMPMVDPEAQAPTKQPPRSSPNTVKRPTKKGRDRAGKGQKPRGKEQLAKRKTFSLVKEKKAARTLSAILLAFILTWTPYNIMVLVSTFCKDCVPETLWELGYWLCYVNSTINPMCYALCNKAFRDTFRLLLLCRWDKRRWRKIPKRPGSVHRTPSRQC
Method in brief: as §1

[1] = 100% efficacy is the maximum response obtained with the Carbachol control
[2] = 100% efficacy = maximum response obtained with the Carbachol control

Row | Structure (SMILES) | Emax (M2 muscarinic receptor; [1]) [%] | M2 Activity (M2 muscarinic receptor) | Emax (M4 muscarinic receptor; [1]) [%] | M4 Activity (M4 muscarinic receptor) | Emax (M1 muscarinic receptor; [1]) [%] | M1 Activity (M1 muscarinic receptor) | Emax (M2 muscarinic receptor; [2]) [%] | Emax (M4 muscarinic receptor; [2]) [%] | Emax (M1 muscarinic receptor; [2]) [%]
1 | COc1ccc(Cl)cc1C1(O)CCN(C2CCCCCC2)CC1 [Compound 380] | < 25 | + (activity was measured to be greater than 5.0 μM) | 25 to 100 | ++ (activity was measured to be from 1.0 μM to 5.0 μM) | < 25 | + (activity was measured to be greater than 5.0 μM) |  |  | 
2 | COc1ccc(Cl)cc1C1(O)CCN(C2CC3CCC2C3)CC1 (stereo not drawn) [Compound 63] |  | + (activity was measured to be greater than 5.0 μM) |  | + (activity was measured to be greater than 5.0 μM) |  | + (activity was measured to be greater than 5.0 μM) | < 25 | 25 to 100 | < 25
3 | CCOC(=O)N1[C@@H]2CC[C@@H]1CC(N1CCC(c3cc(NC(C)=O)ccc3OC)CC1)C2 (stereo partly drawn) [Compound 338] |  |  |  |  |  |  | < 25 | 25 to 100 | 25 to 100
4 | COc1ccc(Cl)cc1C1(OC)CCN(C2CCC3CCC2C3)CC1 (stereo not drawn) [Compound 80] |  | ++ (activity was measured to be from 1.0 μM to 5.0 μM) |  | +++ (activity was measured to be less than 1.0 μM) |  | ++ (activity was measured to be from 1.0 μM to 5.0 μM) | < 25 | 25 to 100 | 25 to 100
5 | CCOC(=O)N1[C@@H]2CC[C@@H]1CC(N1CCC(c3cc(F)ccc3C)CC1)C2 (stereo partly drawn) [Compound 145] |  | +++ (activity was measured to be less than 1.0 μM) |  | +++ (activity was measured to be less than 1.0 μM) |  | +++ (activity was measured to be less than 1.0 μM) | 25 to 100 | 25 to 100 | 25 to 100
6 | COc1ccc(C2CCN(CC3C[C@H]4CC[C@H]3C4)CC2)c(OC)c1 (stereo partly drawn) [Compound 159] |  | + (activity was measured to be greater than 5.0 μM) |  | ++ (activity was measured to be from 1.0 μM to 5.0 μM) |  | + (activity was measured to be greater than 5.0 μM) | < 25 | < 25 | < 25
7 | CCOC(=O)N1C2CCC1CC(CN1CCC(c3ccccc3OC)CC1)C2 (stereo not drawn) [Compound 20] |  | + (activity was measured to be greater than 5.0 μM) |  | +++ (activity was measured to be less than 1.0 μM) |  | +++ (activity was measured to be less than 1.0 μM) | < 25 | 25 to 100 | 25 to 100
8 | COc1ccccc1C1CCN(C2CC3CCC2O3)CC1 (stereo not drawn) [Compound 312] |  | + (activity was measured to be greater than 5.0 μM) |  | + (activity was measured to be greater than 5.0 μM) |  | + (activity was measured to be greater than 5.0 μM) | < 25 | < 25 | < 25
9 | CCOC(=O)N1CCC(N2CCC(OC)(c3cc(Cl)ccc3OC)CC2)CC1 [Compound 55] |  | + (activity was measured to be greater than 5.0 μM) |  | +++ (activity was measured to be less than 1.0 μM) |  | +++ (activity was measured to be less than 1.0 μM) | < 25 | 25 to 100 | 25 to 100
10 | COc1ccc(Cl)cc1C1(OC)CCN(C2CCCCCC2)CC1 [Compound 101] |  | + (activity was measured to be greater than 5.0 μM) |  | +++ (activity was measured to be less than 1.0 μM) |  | ++ (activity was measured to be from 1.0 μM to 5.0 μM) | < 25 | 25 to 100 | 25 to 100
11 | COc1ccc(Cl)cc1C1(O)CCN(C2CCCCC2)CC1 [Compound 99] |  | + (activity was measured to be greater than 5.0 μM) |  | ++ (activity was measured to be from 1.0 μM to 5.0 μM) |  | + (activity was measured to be greater than 5.0 μM) | < 25 | 25 to 100 | < 25
